Reference: US10106578B2, “Melanocortin-1 receptor-specific linear peptides” (Palatin Technologies, Inc., priority 2012, dated 2018)
pEC50, pKi: −log10 of the molar value. Where a SMILES comes first, the peptide text is derived from it. [ ]: non-standard residue; d: D form. Nle = CCCC[C@H](N)C(=O)O; Orn = NCCC[C@H](N)C(=O)O; Dab = NCC[C@H](N)C(=O)O; Sar = CNCC(=O)O

How the values were obtained:
hMCR-1 = molecular target: T1, hMCR-1 (Homo sapiens, UniProt Q01726); assay: Assay for agonist activity: cAMP accumulation in HBL human melanoma cells; assay type: cell-based; details: for Emax: compared to reference agonist NDP-α-MSH, read-out: MC-1 Emax (average; cAMP HBL); for pEC50: read-out: MC-1 EC50 (average; cAMP HBL)
T1 construct: endogenous in cells; host or cells: HBL human melanoma cell line
Text: Accumulation of intracellular cAMP was examined as a measure of the ability of the peptides of the present invention to elicit a functional response in a human melanoma cell line, HBL, that express hMCR-1 (see Kang, L., et al., “A selective small molecule agonist of melanocortin-1 receptor inhibits lipopolysaccharide-induced cytokine accumulation and leukocyte infiltration in mice,” J. Leuk. Biol. 80:897-904 (2006)) or HEK-293 cells that express hMCR-4. Confluent HBL cells that express hMCR-1 or HEK-293 cells that express recombinant hMCR-4 were detached from culture plates by incubation in enzyme-free cell dissociation buffer. Dispersed cells were suspended in Earle's Balanced Salt Solution containing 10 mM HEPES (pH 7.5), 1 mM MgCl2, 1 mM glutamine, 0.5% albumin and 0.3 mM 3-isobutyl-1-methyl-xanthine (IBMX), a phosphodiesterase inhibitor. The cells were plated in 96-well plates at a density of 0.4×10^5 cells per well for HBL cells and 0.5×10^5 cells per well for HEK-293 cells and pre-incubated for 10 minutes. Cells were exposed for 15 minutes at 37° C. to peptides of the present invention dissolved in DMSO (final DMSO concentration of 1%) at a concentration range of 0.05-5000 nM in a total assay volume of 200 μL. NDP-α-MSH was used as the reference agonist. cAMP levels were determined by an HTRF® cAMP cell-based assay system from Cisbio Bioassays utilizing cryptate-labeled anti-cAMP and d2-labeled cAMP, with plates read on a Perkin-Elmer Victor plate reader at […]. Data analysis was performed by nonlinear regression analysis with Graph-Pad PRISM® software. Maximum efficacy (Emax) values were determined for each test peptide of the present invention, compared to that achieved by the reference melanocortin agonist NDP-α-MSH.
(§1) Peptides of the following structures were synthesized and purified as described in Section 5 above, with the resulting peptide having the structure depicted. After synthesis and purification, the foregoing peptide was tested as described in Section 8 above, and average MCR-1 and MCR-4 Ki values determined as indicated. All Ki values were determined using [I^125]-NDP-α-MSH. All results are expressed in nM except for Emax values, which are percentage values.

hMCR-1a = molecular target: T2, hMCR-1a (Homo sapiens, UniProt Q01726); assay: Competitive inhibition binding assay using [I125]-NDP-α-MSH, hMCR-1a membranes; details: HEK-293 membranes, recombinant human MCR-1, [I125]-NDP-α-MSH; read-out: MC-1 Ki (average)
T2 construct: expressed in transfected cells; host or cells: HEK-293 cells (membrane homogenates)
Method: (§2) A competitive inhibition binding assay was performed using membrane homogenates prepared from HEK-293 cells that express recombinant hMCR-1a or hMCR-4 (in each instance where the h prefix refers to human), or alternatively membrane homogenates from B16-F10 mouse melanoma cells containing endogenous murine MCR-1. In the examples that follow, all MCR-1 and MCR-4 values are for human recombinant receptors, unless otherwise noted. Assays were performed in 96 well polypropylene round-bottom plates (VWR catalog number 12777-030). Membrane homogenates were incubated with 0.1 nM [I^125]-NDP-α-MSH (Perkin Elmer) and increasing concentrations of test peptides of the present invention in buffer containing 25 mM HEPES buffer (pH 7.5) with 100 mM NaCl, 2 mM CaCl2, 2 mM MgCl2, 0.3 mM 1,10-phenanthroline, and 0.2% bovine serum albumin. After incubation for 90 minutes at 37° C., the assay mixture was filtered onto GF/B Unifilter plates (Perkin-Elmer catalog number 6005177) and washed with 3 mL of ice-cold buffer per well. Filters were air dried and 35 μL of scintillation cocktail added to each well. Plates were counted in a Microbeta counter for bound radioactivity. Non-specific binding was measured by inhibition of binding of [I^125]-NDP-α-MSH in the presence of 1 μM NDP-α-MSH. Maximal specific binding (100%) was defined as the difference in radioactivity (cpm) bound to cell membranes in the absence and presence of 1 μM NDP-α-MSH. Each assay was conducted in duplicate and the actual mean values are described, with results less than 0% reported as 0%. Ki values for peptides of the present invention were determined using Graph-Pad PRISM® curve-fitting software.
as §1

hMCR-4 = molecular target: T3, hMCR-4 (Homo sapiens, UniProt P32245); assay: Competitive inhibition binding assay using [I125]-NDP-α-MSH, hMCR-4 membranes; details: HEK-293 membranes, recombinant human MCR-4, [I125]-NDP-α-MSH; read-out: MC-4 Ki (average)
T3 construct: expressed in transfected cells; host or cells: HEK-293 cells (membrane homogenates)
Method: as §2, §1

T2 sequence (Q01726 whole entry): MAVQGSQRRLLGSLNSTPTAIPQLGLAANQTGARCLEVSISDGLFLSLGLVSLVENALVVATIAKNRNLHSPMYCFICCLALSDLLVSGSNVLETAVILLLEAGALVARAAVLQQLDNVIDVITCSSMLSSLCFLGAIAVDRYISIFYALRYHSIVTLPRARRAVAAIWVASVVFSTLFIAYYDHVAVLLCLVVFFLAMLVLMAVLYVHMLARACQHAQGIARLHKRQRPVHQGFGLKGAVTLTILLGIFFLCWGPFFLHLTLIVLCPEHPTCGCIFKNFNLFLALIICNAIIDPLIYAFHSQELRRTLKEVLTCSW
T1 sequence (Q01726 whole entry): as above
T3 sequence (P32245 whole entry): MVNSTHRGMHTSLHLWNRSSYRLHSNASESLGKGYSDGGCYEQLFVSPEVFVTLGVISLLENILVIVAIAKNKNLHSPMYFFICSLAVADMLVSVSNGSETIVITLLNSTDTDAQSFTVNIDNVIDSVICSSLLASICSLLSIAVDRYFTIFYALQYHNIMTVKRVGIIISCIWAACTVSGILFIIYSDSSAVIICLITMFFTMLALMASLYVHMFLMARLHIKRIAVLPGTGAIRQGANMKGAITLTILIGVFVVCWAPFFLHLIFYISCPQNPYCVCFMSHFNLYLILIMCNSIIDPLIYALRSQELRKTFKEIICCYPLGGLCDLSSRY

| SMILES | Emax (hMCR-1) [%] | pEC50 (hMCR-1) | pKi (hMCR-1a) | pKi (hMCR-4) |
| --- | --- | --- | --- | --- |
| CCCC[C@H](NC(C)=O)C(=O)N[C@@H](C)C(=O)N[C@@H](Cc1c[nH]cn1)C(=O)N[C@H](Cc1ccccc1)C(=O)N[C@@H](CCCNC(=N)N)C(=O)N(C)CC(=O)N[C@@H](Cc1c[nH]c2ccccc12)C(N)=O [Example 9.4, Ac-Nle-Ala-His-D-Phe-Arg-Sar-Trp-NH2] (Ac-[Nle]AH[dF]R[Sar]W-NH2) | 77 | 9.77 | 8.70 | 6.06 |
| CCCC[C@H](NC(C)=O)C(=O)N[C@@H](C)C(=O)N[C@@H](Cc1c[nH]cn1)C(=O)N[C@H](Cc1ccccc1)C(=O)N[C@@H](CCCNC(=N)N)C(=O)N1CCC[C@@H]1C(=O)N[C@@H](Cc1c[nH]c2ccccc12)C(N)=O [Example 9.11, Ac-Nle-Ala-His-D-Phe-Arg-D-Pro-Trp-NH2] (Ac-[Nle]AH[dF]R[dP]W-NH2) | 70 | 9.00 | 7.85 | 5.21 |
| CCCC[C@H](NC(C)=O)C(=O)N[C@@H](C)C(=O)N[C@@H](Cc1c[nH]cn1)C(=O)N[C@H](Cc1ccccc1)C(=O)N[C@@H](CCCNC(=N)N)C(=O)N1CCC[C@@H]1C(=O)N[C@H](Cc1c[nH]c2ccccc12)C(N)=O [Example 9.12, Ac-Nle-Ala-His-D-Phe-Arg-D-Pro-D-Trp-NH2] (Ac-[Nle]AH[dF]R[dP][dW]-NH2) | 72 | 8.70 | 7.70 |  |
| CCCC[C@H](NC(C)=O)C(=O)N[C@@H](C)C(=O)N[C@@H](Cc1c[nH]cn1)C(=O)N[C@H](Cc1ccccc1)C(=O)N[C@@H](CCCNC(=N)N)C(=O)N1CCC[C@H]1C(=O)N[C@H](Cc1c[nH]c2ccccc12)C(N)=O [Example 9.13, Ac-Nle-Ala-His-D-Phe-Arg-Pro-D-Trp-NH2] (Ac-[Nle]AH[dF]RP[dW]-NH2) | 90 | 9.77 | 8.70 | 6.19 |
| CCCC[C@H](NC(C)=O)C(=O)N[C@@H](C)C(=O)N[C@@H](Cc1c[nH]cn1)C(=O)N[C@H](Cc1ccccc1)C(=O)N[C@@H](CCCNC(=N)N)C(=O)N[C@@H](C)C(=O)N[C@@H](Cc1c[nH]c2ccccc12)C(=O)O [Example 9.14, Ac-Nle-Ala-His-D-Phe-Arg-Ala-Trp-OH] (Ac-[Nle]AH[dF]RAW-OH) | 73 |  | 8.22 |  |
| CCCC[C@H](NC(C)=O)C(=O)N[C@H](Cc1ccccc1)C(=O)N[C@@H](CCCNC(=N)N)C(=O)N[C@@H](C)C(=O)N[C@@H](Cc1c[nH]c2ccccc12)C(N)=O [Example 9.15, Ac-Nle-D-Phe-Arg-Ala-Trp-NH2] (Ac-[Nle][dF]RAW-NH2) | 67 |  | 5.89 | 5.15 |
| CCCC[C@H](NC(C)=O)C(=O)N[C@@H](C)C(=O)N[C@@H](Cc1ccccc1)C(=O)N[C@H](Cc1ccccc1)C(=O)N[C@@H](CCCNC(=N)N)C(=O)N[C@@H](C)C(=O)N[C@@H](Cc1c[nH]c2ccccc12)C(N)=O [Example 9.19, Ac-Nle-Ala-Phe-D-Phe-Arg-Ala-Trp-NH2] (Ac-[Nle]AF[dF]RAW-NH2) | 99 | 8.22 | 7.70 |  |

The remaining lines, values ahead:

| Emax (hMCR-1) [%] | pEC50 (hMCR-1) | pKi (hMCR-1a) | pKi (hMCR-4) | SMILES |
| --- | --- | --- | --- | --- |
| 70 |  | 8.15 | 6.67 | CCCC[C@H](NC(C)=O)C(=O)N[C@@H](C)C(=O)N[C@@H](Cc1c[nH]cn1)C(=O)N[C@H](Cc1ccccc1)C(=O)N[C@@H](CCCNC(=N)N)C(=O)N[C@@H](C)C(=O)N[C@H](Cc1c[nH]c2ccccc12)C(N)=O [Example 9.9, Ac-Nle-Ala-His-D-Phe-Arg-Ala-D-Trp-NH2] (Ac-[Nle]AH[dF]RA[dW]-NH2) |
| 107 |  | 8.40 |  | CCCC[C@H](NC(C)=O)C(=O)N[C@@H](C)C(=O)N[C@@H](CCCCN)C(=O)N[C@H](Cc1ccccc1)C(=O)N[C@@H](CCCNC(=N)N)C(=O)N[C@@H](C)C(=O)N[C@@H](Cc1c[nH]c2ccccc12)C(N)=O [Example 9.20, Ac-Nle-Ala-Lys-D-Phe-Arg-Ala-Trp-NH2] (Ac-[Nle]AK[dF]RAW-NH2) |
| 107 |  | 9.52 | 5.12 | CCCC[C@H](NC(C)=O)C(=O)N[C@@H](C)C(=O)N[C@@H](CCCN)C(=O)N[C@H](Cc1ccccc1)C(=O)N[C@@H](CCCNC(=N)N)C(=O)N[C@@H](C)C(=O)N[C@@H](Cc1c[nH]c2ccccc12)C(N)=O [Example 9.21, Ac-Nle-Ala-Orn-D-Phe-Arg-Ala-Trp-NH2] (Ac-[Nle]A[Orn][dF]RAW-NH2) |
| 101 |  | 8.70 | 5.11 | CCCC[C@H](NC(C)=O)C(=O)N[C@@H](C)C(=O)N[C@@H](CCN)C(=O)N[C@H](Cc1ccccc1)C(=O)N[C@@H](CCCNC(=N)N)C(=O)N[C@@H](C)C(=O)N[C@@H](Cc1c[nH]c2ccccc12)C(N)=O [Example 9.22, Ac-Nle-Ala-Dab-D-Phe-Arg-Ala-Trp-NH2] (Ac-[Nle]A[Dab][dF]RAW-NH2) |
